Data from the NIST ThermoML archive (doi:10.1016/j.tca.2014.05.028).
Numbers after ± are expanded uncertainties.

Experiment: xn = mol fraction of the nth substance listed
Details: 101 kPa, Liquid; for viscosity: Falling or rolling sphere viscometry; for mass density: Vibrating tube method

CCC[N+]1(C)CCCC1.[Br-] [1-methyl-1-propylpyrrolidinium bromide] + O
Details	mass density [kg/m3]	viscosity [mPa·s]
298.15 K, x1 = 0.0315	1060.85 ± 0.4	1.604 ± 0.097
298.15 K, x1 = 0.0664	1111.9 ± 0.34	2.896 ± 0.17
298.15 K, x1 = 0.0983	1147.67 ± 0.3	5.311 ± 0.32
298.15 K, x1 = 0.1376	1178.4 ± 0.28	8.527 ± 0.52
298.15 K, x1 = 0.1685	1196.91 ± 0.28	12.41 ± 0.75
298.15 K, x1 = 0.2138	1217.36 ± 0.29	20.56 ± 1.2
298.15 K, x1 = 0.2382	1225.96 ± 0.3	26.01 ± 1.6
298.15 K, x1 = 0.27	1235.84 ± 0.32	35.47 ± 2.1
298.15 K, x1 = 0.3143	1245.39 ± 0.35	50.7 ± 3.1
298.15 K, x1 = 0.3535	1251.89 ± 0.38	69.94 ± 4.3
298.15 K, x1 = 1	1259.96 ± 1.4	–
303.15 K, x1 = 0.0315	1058.76 ± 0.4	1.412 ± 0.085
303.15 K, x1 = 0.0664	1109.17 ± 0.34	2.5 ± 0.15
303.15 K, x1 = 0.0983	1144.55 ± 0.29	4.504 ± 0.27
303.15 K, x1 = 0.1376	1175.05 ± 0.28	7.082 ± 0.43
303.15 K, x1 = 0.1685	1193.47 ± 0.28	10.2 ± 0.62
303.15 K, x1 = 0.2138	1213.89 ± 0.29	16.41 ± 0.99
303.15 K, x1 = 0.2382	1222.51 ± 0.3	20.59 ± 1.2
303.15 K, x1 = 0.27	1232.42 ± 0.32	27.62 ± 1.7
303.15 K, x1 = 0.3143	1242.02 ± 0.34	39.02 ± 2.4
303.15 K, x1 = 0.3535	1248.57 ± 0.37	53.25 ± 3.2
303.15 K, x1 = 1	1255.92 ± 1.4	–
308.15 K, x1 = 0.0315	1056.5 ± 0.4	1.216 ± 0.074
308.15 K, x1 = 0.0664	1106.34 ± 0.34	2.115 ± 0.13
308.15 K, x1 = 0.0983	1141.38 ± 0.29	3.451 ± 0.21
308.15 K, x1 = 0.1376	1171.66 ± 0.28	5.766 ± 0.35
308.15 K, x1 = 0.1685	1190.01 ± 0.28	8.237 ± 0.5
308.15 K, x1 = 0.2138	1210.41 ± 0.29	12.97 ± 0.78
308.15 K, x1 = 0.2382	1219.05 ± 0.3	16.15 ± 0.98
308.15 K, x1 = 0.27	1228.99 ± 0.31	21.43 ± 1.3
308.15 K, x1 = 0.3143	1238.64 ± 0.34	29.75 ± 1.8
308.15 K, x1 = 0.3535	1245.24 ± 0.37	40.25 ± 2.4
308.15 K, x1 = 1	1251.9 ± 1.4	–
313.15 K, x1 = 0.0315	1054.11 ± 0.39	1.077 ± 0.065
313.15 K, x1 = 0.0664	1103.44 ± 0.33	1.841 ± 0.11
313.15 K, x1 = 0.0983	1138.15 ± 0.29	2.994 ± 0.18
313.15 K, x1 = 0.1376	1168.23 ± 0.28	4.851 ± 0.29
313.15 K, x1 = 0.1685	1186.52 ± 0.27	6.89 ± 0.42
313.15 K, x1 = 0.2138	1206.9 ± 0.29	10.66 ± 0.65
313.15 K, x1 = 0.2382	1215.56 ± 0.3	13.14 ± 0.8
313.15 K, x1 = 0.27	1225.54 ± 0.31	17.24 ± 1
313.15 K, x1 = 0.3143	1235.25 ± 0.34	23.61 ± 1.4
313.15 K, x1 = 0.3535	1241.91 ± 0.37	31.53 ± 1.9
313.15 K, x1 = 1	1247.91 ± 1.4	–
318.15 K, x1 = 0.0315	1051.58 ± 0.39	0.972 ± 0.059
318.15 K, x1 = 0.0664	1100.44 ± 0.33	1.633 ± 0.099
318.15 K, x1 = 0.0983	1134.88 ± 0.29	2.652 ± 0.16
318.15 K, x1 = 0.1376	1164.78 ± 0.28	4.16 ± 0.25
318.15 K, x1 = 0.1685	1183 ± 0.27	5.833 ± 0.35
318.15 K, x1 = 0.2138	1203.37 ± 0.29	8.968 ± 0.54
318.15 K, x1 = 0.2382	1212.05 ± 0.3	10.98 ± 0.66
318.15 K, x1 = 0.27	1222.08 ± 0.31	14.27 ± 0.86
318.15 K, x1 = 0.3143	1231.85 ± 0.34	19.29 ± 1.2
318.15 K, x1 = 0.3535	1238.59 ± 0.37	25.42 ± 1.5
318.15 K, x1 = 1	1243.94 ± 1.4	–
323.15 K, x1 = 0.0315	1048.87 ± 0.39	0.865 ± 0.052
323.15 K, x1 = 0.0664	1097.37 ± 0.33	1.431 ± 0.087
323.15 K, x1 = 0.0983	1131.54 ± 0.29	2.372 ± 0.14
323.15 K, x1 = 0.1376	1161.28 ± 0.28	3.542 ± 0.21
323.15 K, x1 = 0.1685	1179.46 ± 0.27	4.937 ± 0.3
323.15 K, x1 = 0.2138	1199.83 ± 0.29	7.49 ± 0.45
323.15 K, x1 = 0.2382	1208.53 ± 0.3	9.11 ± 0.55
323.15 K, x1 = 0.27	1218.61 ± 0.31	11.75 ± 0.71
323.15 K, x1 = 0.3143	1228.44 ± 0.34	15.69 ± 0.95
323.15 K, x1 = 0.3535	1235.27 ± 0.37	20.44 ± 1.2
323.15 K, x1 = 1	1240 ± 1.4	–
328.15 K, x1 = 0.0315	1045.65 ± 0.39	0.771 ± 0.047
328.15 K, x1 = 0.0664	1094.2 ± 0.33	1.254 ± 0.076
328.15 K, x1 = 0.0983	1128.16 ± 0.29	2.085 ± 0.13
328.15 K, x1 = 0.1376	1157.76 ± 0.28	3.021 ± 0.18
328.15 K, x1 = 0.1685	1175.88 ± 0.27	4.183 ± 0.25
328.15 K, x1 = 0.2138	1196.26 ± 0.29	6.287 ± 0.38
328.15 K, x1 = 0.2382	1205 ± 0.29	7.586 ± 0.46
328.15 K, x1 = 0.27	1215.12 ± 0.31	9.732 ± 0.59
328.15 K, x1 = 0.3143	1225.02 ± 0.34	12.85 ± 0.78
328.15 K, x1 = 0.3535	1231.95 ± 0.36	16.54 ± 1
328.15 K, x1 = 1	1236.08 ± 1.4	–
333.15 K, x1 = 0.0315	1041.46 ± 0.38	0.695 ± 0.042
333.15 K, x1 = 0.0664	1090.9 ± 0.33	1.112 ± 0.067
333.15 K, x1 = 0.0983	1124.72 ± 0.29	1.841 ± 0.11
333.15 K, x1 = 0.1376	1154.2 ± 0.28	2.61 ± 0.16
333.15 K, x1 = 0.1685	1172.28 ± 0.27	3.597 ± 0.22
333.15 K, x1 = 0.2138	1192.68 ± 0.29	5.348 ± 0.32
333.15 K, x1 = 0.2382	1201.44 ± 0.29	6.425 ± 0.39
333.15 K, x1 = 0.27	1211.61 ± 0.31	8.189 ± 0.5
333.15 K, x1 = 0.3143	1221.59 ± 0.33	10.73 ± 0.65
333.15 K, x1 = 0.3535	1228.68 ± 0.36	13.7 ± 0.83
333.15 K, x1 = 1	1232.19 ± 1.4	–
338.15 K, x1 = 0.0315	1036.23 ± 0.38	0.64 ± 0.039
338.15 K, x1 = 0.0664	1087.31 ± 0.33	1.01 ± 0.061
338.15 K, x1 = 0.0983	1121.23 ± 0.29	1.651 ± 0.1
338.15 K, x1 = 0.1376	1150.6 ± 0.27	2.311 ± 0.14
338.15 K, x1 = 0.1685	1168.66 ± 0.27	3.174 ± 0.19
338.15 K, x1 = 0.2138	1189.07 ± 0.28	4.677 ± 0.28
338.15 K, x1 = 0.2382	1197.87 ± 0.29	5.592 ± 0.34
338.15 K, x1 = 0.27	1208.09 ± 0.31	7.083 ± 0.43
338.15 K, x1 = 0.3143	1218.14 ± 0.33	9.191 ± 0.56
338.15 K, x1 = 0.3535	1225.35 ± 0.36	11.65 ± 0.71
338.15 K, x1 = 1	1228.32 ± 1.3	–
343.15 K, x1 = 0.0315	1030.46 ± 0.38	0.574 ± 0.035
343.15 K, x1 = 0.0664	1083.03 ± 0.34	0.881 ± 0.053
343.15 K, x1 = 0.0983	1117.67 ± 0.29	1.326 ± 0.08
343.15 K, x1 = 0.1376	1146.98 ± 0.27	1.931 ± 0.12
343.15 K, x1 = 0.1685	1165.01 ± 0.27	2.763 ± 0.17
343.15 K, x1 = 0.2138	1185.45 ± 0.28	4.018 ± 0.24
343.15 K, x1 = 0.2382	1194.28 ± 0.29	4.784 ± 0.29
343.15 K, x1 = 0.27	1204.56 ± 0.31	6.011 ± 0.36
343.15 K, x1 = 0.3143	1214.68 ± 0.33	7.777 ± 0.47
343.15 K, x1 = 0.3535	1221.99 ± 0.36	9.762 ± 0.59
343.15 K, x1 = 1	1224.48 ± 1.3	–
